According to PubChem BioAssay AID248 (DTP/NCI, 2004):
Values joined by “and” are separate entries in the source; they are usually repeats but may differ in a detail not shown here. Identical values can stand only once. Toxic doses and inconclusive results are not listed. Cut-off read from the data, not from the text of the source: active = T/C of 150% or more; inactive = T/C below 125%.

Test system: L1210 leukemia ip in BDF1 mice, survival T/C
Experiment: NCI In Vivo Anticancer Drug Screen. Data for tumor model L1210 Leukemia (intraperitoneal) in B6D2F1 (BDF1) mice
Conditions: endpoint: mean survival time, higher = longer survival
How it was run: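 Tumor cells were implanted, animals were treated, and survival was followed. The result divides the treated measurement by the vehicle-control measurement.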

[1] = dose: 100.0 mg/kg/injection, schedule: Q01DX001 (ip), vehicle: saline
[2] = dose: 200.0 mg/kg/injection, schedule: Q01DX001 (ip), vehicle: saline
[3] = dose: 400.0 mg/kg/injection, schedule: Q01DX001 (ip), vehicle: saline
[4] = dose: 100.0 mg/kg/injection, schedule: Q01DX009 (ip), vehicle: saline
[5] = dose: 100.0 mg/kg/injection, schedule: Q04DX003 (ip), vehicle: saline
[6] = dose: 200.0 mg/kg/injection, schedule: Q01DX009 (ip), vehicle: saline
[7] = dose: 200.0 mg/kg/injection, schedule: Q04DX003 (ip), vehicle: saline
[8] = dose: 400.0 mg/kg/injection, schedule: Q01DX009 (ip), vehicle: saline
[9] = dose: 400.0 mg/kg/injection, schedule: Q04DX003 (ip), vehicle: saline
[10] = dose: 25.0 mg/kg/injection, schedule: Q01DX009 (ip), vehicle: saline with Tween-80
[11] = dose: 50.0 mg/kg/injection, schedule: Q01DX009 (ip), vehicle: saline with Tween-80
[12] = dose: 100.0 mg/kg/injection, schedule: Q01DX009 (ip), vehicle: saline with Tween-80
[13] = dose: 50.0 mg/kg/injection, schedule: Q01DX009 (ip), vehicle: Klucel (hydroxypropylcellulose) (HPC)
[14] = dose: 100.0 mg/kg/injection, schedule: Q01DX009 (ip), vehicle: Klucel (hydroxypropylcellulose) (HPC)
[15] = dose: 100.0 mg/kg/injection, schedule: Q04DX003 (ip), vehicle: Klucel (hydroxypropylcellulose) (HPC)
[16] = dose: 200.0 mg/kg/injection, schedule: Q01DX009 (ip), vehicle: Klucel (hydroxypropylcellulose) (HPC)
[17] = dose: 200.0 mg/kg/injection, schedule: Q04DX003 (ip), vehicle: Klucel (hydroxypropylcellulose) (HPC)
[18] = dose: 400.0 mg/kg/injection, schedule: Q04DX003 (ip), vehicle: Klucel (hydroxypropylcellulose) (HPC)
[19] = dose: 200.0 mg/kg/injection, schedule: Q01DX009 (ip), vehicle: saline with Tween-80
[20] = dose: 100.0 mg/kg/injection, schedule: Q04DX002 (ip), vehicle: saline with Tween-80
[21] = dose: 200.0 mg/kg/injection, schedule: Q04DX002 (ip), vehicle: saline with Tween-80
[22] = dose: 400.0 mg/kg/injection, schedule: Q04DX002 (ip), vehicle: saline with Tween-80
[23] = dose: 400.0 mg/kg/injection, schedule: Q01DX009 (ip), vehicle: saline with Tween-80
[24] = dose: 400.0 mg/kg/injection, schedule: Q01DX009 (ip), vehicle: Klucel (hydroxypropylcellulose) (HPC)
[25] = dose: 100.0 mg/kg/injection, schedule: Q04DX003 (ip), vehicle: saline with Tween-80

Measured: T/C

CCOC(=O)N1CCc2nc3ccccc3cc21
inactive: dose: 50.0 mg/kg/injection, schedule: Q01DX009 (ip), vehicle: other 100 % of control | dose: 100.0 mg/kg/injection, schedule: Q01DX009 (ip), vehicle: other 90 % of control | dose: 200.0 mg/kg/injection, schedule: Q01DX009 (ip), vehicle: other 93 % of control

CC1OC(C)C(Cl)C1Cl (stereo unspecified)
inactive: dose: 50.0 mg/kg/injection, schedule: Q04DX002 (ip), vehicle: Klucel (hydroxypropylcellulose) (HPC) 110 % of control | dose: 100.0 mg/kg/injection, schedule: Q04DX002 (ip), vehicle: Klucel (hydroxypropylcellulose) (HPC) 95 % of control | dose: 200.0 mg/kg/injection, schedule: Q04DX002 (ip), vehicle: Klucel (hydroxypropylcellulose) (HPC) 100 % of control

O=C1/C=C2/C=CC=CN2C(=O)/C=C2/C=CC=CN12
inactive: dose: 50.0 mg/kg/injection, schedule: Q01DX001 (ip), vehicle: saline 104 % of control | [1] 101 % of control | [2] 104 % of control | [3] 97 % of control

COC(CN(C)CC(OC)OC)OC
inactive: [4] 107 % of control | [5] 97 % of control | [6] 96 % of control | [7] 112 % of control | [8] 98 % of control | [9] 105 % of control

COc1ccc(OC)c(NC(=O)NNC(=O)c2ccccc2Cl)c1
inactive: [10] 100 % of control | [11] 91 % of control | [12] 94 % of control

CCOC(=O)N1CCC2C(CC3CC2C3(C)C)N1C(=O)OCC (stereo unspecified)
inactive: [13] 103 % of control | [14] 101 % of control | [15] 97 % of control | [16] 101 % of control | [17] 101 % of control | [18] 99 % of control

CCOC(=O)NC1=C(N2CC2(C)C)C(=O)C(NC(=O)OCC)=C(N2CC2(C)C)C1=O
inactive: dose: 0.93 mg/kg/injection, schedule: Q01DX009 (ip), vehicle: saline 94 % of control and 110 % of control | dose: 1.87 mg/kg/injection, schedule: Q01DX009 (ip), vehicle: saline 100 % of control and 91 % of control | dose: 3.75 mg/kg/injection, schedule: Q01DX009 (ip), vehicle: saline 96 % of control and 102 % of control | dose: 7.5 mg/kg/injection, schedule: Q01DX009 (ip), vehicle: saline 102 % of control and 107 % of control | dose: 15.0 mg/kg/injection, schedule: Q01DX009 (ip), vehicle: saline 96 % of control and 89 % of control | dose: 30.0 mg/kg/injection, schedule: Q01DX009 (ip), vehicle: saline 100 % of control and 102 % of control

SCCSCCNc1ccccc1
inactive: [11] 101 % of control | [12] 101 % of control | [19] 101 % of control

CCCCCCCCCCCCCCCC(=O)N1CCCN(C(=O)CCCCCCCCCCCCCCC)C1
inactive: dose: 30.0 mg/kg/injection, schedule: Q01DX001 (ip), vehicle: saline 93 % of control | [1] 88 % of control | dose: 300.0 mg/kg/injection, schedule: Q01DX001 (ip), vehicle: saline 94 % of control

CCCCSP(SCCCC)N1CCCCC1
inactive: [5] 102 % of control | [7] 98 % of control

COc1ccccc1P(c1ccccc1OC)c1ccccc1OC
inactive: [4] 95 % of control | [5] 113 % of control | [6] 92 % of control | [7] 102 % of control | [8] 98 % of control | [9] 101 % of control

N#Cc1ccccc1OCCCCCCCCCCOc1ccccc1C#N
inactive: dose: 75.0 mg/kg/injection, schedule: Q01DX009 (ip), vehicle: Klucel (hydroxypropylcellulose) (HPC) 99 % of control | dose: 150.0 mg/kg/injection, schedule: Q01DX009 (ip), vehicle: Klucel (hydroxypropylcellulose) (HPC) 92 % of control | dose: 300.0 mg/kg/injection, schedule: Q01DX009 (ip), vehicle: Klucel (hydroxypropylcellulose) (HPC) 90 % of control

OCCC#CCCOC1CCCCO1 (stereo unspecified)
inactive: [20] 93 % of control | [21] 103 % of control | [22] 103 % of control

O=[N+]([O-])c1ccc(/C=N\NC(=S)Nc2ccc3cn[nH]c3c2)cc1
inactive: dose: 50.0 mg/kg/injection, schedule: Q01DX001 (ip), vehicle: carboxymethylcellulose (CMC) 91 % of control | dose: 100.0 mg/kg/injection, schedule: Q01DX001 (ip), vehicle: carboxymethylcellulose (CMC) 97 % of control | dose: 200.0 mg/kg/injection, schedule: Q01DX001 (ip), vehicle: carboxymethylcellulose (CMC) 97 % of control | dose: 400.0 mg/kg/injection, schedule: Q01DX001 (ip), vehicle: carboxymethylcellulose (CMC) 105 % of control

CP1(=O)CCC(Br)C1Br (stereo unspecified)
inactive: [20] 91 % of control | [21] 91 % of control | [22] 98 % of control

Nc1nccnc1C(=O)O
inactive: dose: 25.0 mg/kg/injection, schedule: Q01DX009 (ip), vehicle: water 100 % of control | dose: 50.0 mg/kg/injection, schedule: Q01DX009 (ip), vehicle: water 96 % of control | dose: 100.0 mg/kg/injection, schedule: Q01DX009 (ip), vehicle: water 100 % of control | dose: 200.0 mg/kg/injection, schedule: Q01DX009 (ip), vehicle: water 96 % of control

NC(Cc1cnc(N=Nc2ccc(S(=O)(=O)N(CCCl)CCCl)cc2)[nH]1)C(=O)O (stereo unspecified)
inactive: [13] 93 % of control | [14] 90 % of control | [16] 97 % of control

N/C(=N/N=C/c1ccc(O)cc1)N[N+](=O)[O-]
inactive: [12] 105 % of control | [19] 89 % of control | [23] 90 % of control

Cc1ccc(C)c(Br)c1C
inactive: [12] 104 % of control | [20] 104 % of control | [19] 104 % of control | [21] 101 % of control | [23] 101 % of control | [22] 101 % of control

O=C(Cc1ccccc1)Nc1ccc[n+](Cc2ccc(S(=O)(=O)F)cc2)c1
inactive: [5] 108 % of control and 122 % of control | [7] 113 % of control and 114 % of control

O=C1c2ccccc2S(=O)(=O)N1CCCBr
inactive: [14] 89 % of control | [16] 89 % of control | [24] 89 % of control

Nc1nc2ncc(CNc3ccc(C(=O)NC(CCC(=O)O)C(=O)O)s3)nc2c(=O)[nH]1 (stereo unspecified)
inactive: [1] 95 % of control | [2] 101 % of control and 95 % of control | [3] 93 % of control and 90 % of control

CC(C)=NNC(=O)CC#N
inactive: dose: 100.0 mg/kg/injection, schedule: Q01DX001 (ip), vehicle: Klucel (hydroxypropylcellulose) (HPC) 86 % of control | dose: 200.0 mg/kg/injection, schedule: Q01DX001 (ip), vehicle: Klucel (hydroxypropylcellulose) (HPC) 94 % of control

CC(=O)C(C(C)=O)C(c1ccc2c(c1)OCO2)C(C(C)=O)C(C)=O
inactive: dose: 12.5 mg/kg/injection, schedule: Q01DX009 (ip), vehicle: saline with Tween-80 93 % of control | [10] 92 % of control | [11] 93 % of control and 92 % of control | [25] 86 % of control

CCCCCCCCNC(=O)CCCCC(=O)NCCCCCCCC
inactive: [14] 91 % of control | [15] 90 % of control | [16] 86 % of control | [17] 90 % of control | [24] 95 % of control | [18] 101 % of control

CC(O)(c1cccc(Cl)c1)C(c1ccccc1)c1ccccn1 (stereo unspecified)
inactive: [25] 101 % of control and 100 % of control | dose: 200.0 mg/kg/injection, schedule: Q04DX003 (ip), vehicle: saline with Tween-80 92 % of control and 106 % of control | dose: 400.0 mg/kg/injection, schedule: Q04DX003 (ip), vehicle: saline with Tween-80 101 % of control and 106 % of control

O=C1CCCCC(=O)CCCC1
inactive: [1] 102 % of control | [2] 100 % of control | [3] 105 % of control

CCN(CC)C(=O)Cn1cc(F)c(N)nc1=O
inactive: [4] 98 % of control | [5] 92 % of control | [6] 107 % of control | [7] 92 % of control | [8] 94 % of control | [9] 95 % of control
